This note sets out measurements from patent publication US11596639B2, “Substituted indole Mcl-1 inhibitors” (Vanderbilt University, priority 2016, dated 2023).

One assay concerns the target Mcl-1 (Homo sapiens (Human), UniProt Q07820). As to the kind of experiment: Fluorescence polarization anisotropy (FPA) competition assay, FITC-Bak or FITC-Bim BH3 peptide. It is filed as binding. Particulars: read-out: Ki for Inhibition of Mcl-1 by FPA assay.
Assay [1] deals with H929 human cancer cell lines. Kind of assay: Cellular viability / proliferation (Cell TiterGlo, 72 h). It is filed as cell-based. A digest of the protocol:
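Cells were seeded at 1,000 cells/well in medium with 10% FBS and dosed 24 h later with a 2-fold serial dilution of compound (top concentration 50 μM, final DMSO <1%).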

[2] abbreviates: Homo sapiens, NCI-H929, 72 h, read-out: GI50 on cellular proliferation of H929 human cancer cell lines, H929 cells, 72 h, Cell TiterGlo, 10% FBS.

SMILES strings stand for the structures. Like-named read-outs stand apart in the source and are kept apart here.

Mcl-1, sequence (Q07820 172-327): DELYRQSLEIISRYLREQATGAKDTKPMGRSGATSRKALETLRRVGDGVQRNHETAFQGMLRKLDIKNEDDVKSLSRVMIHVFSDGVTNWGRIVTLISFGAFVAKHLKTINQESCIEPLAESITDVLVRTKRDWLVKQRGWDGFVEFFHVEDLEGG

As for `Cc1cc(OCCCc2c3n(c4c(-c5c(C)nn(C)c5C)c(Cl)ccc24)[C@H](C)CN(c2cc(C(=O)O)c4c(cnn4C)c2)C3=O)cc(C)c1Cl` [Example 98, (R)-5-(7-chloro-10-(3-(4-chloro-3,5-dimethylphenoxy)propyl)-4-methyl-1-oxo-6-(1,3,5-trimethyl-1H-pyrazol-4-yl)-3,4-dihydropyrazino[1,2-a]indol-2(1H)-yl)-1-methyl-1H-indazole-7-carboxylic acid], the inhibition constant Ki at Mcl-1 is under 0.001 µM. In assay [1] (setting [2]), the GI50 came to 6.6 µM.
For `CCn1ccc2c(C(=O)O)cc(N3C[C@@H](C)n4c(c(CCCOc5cc(C)c(Cl)c(C)c5)c5ccc(Cl)c(-c6c(C)nn(C)c6C)c54)C3=O)cc21` [Example 99, (R)-6-(7-chloro-10-(3-(4-chloro-3,5-dimethylphenoxy)propyl)-4-methyl-1-oxo-6-(1,3,5-trimethyl-1H-pyrazol-4-yl)-3,4-dihydropyrazino[1,2-a]indol-2(1H)-yl)-1-ethyl-1H-indole-4-carboxylic acid], on Mcl-1, the Ki was under 0.001 µM. Also, the GI50 in assay [1] (H929 cells, 72 h, Cell TiterGlo, 10% FBS, read-out: GI50 on cellular proliferation of H929 human cancer cell lines) came out at 2.1 µM.
Consider `Cc1cc(OCCCc2c3n(c4c(-c5c(C)nn(C)c5C)c(Cl)ccc24)[C@H](C)CN(c2cc(C(=O)O)cc4[nH]ccc24)C3=O)cc(C)c1Cl` [Example 100, (R)-4-(7-chloro-10-(3-(4-chloro-3,5-dimethylphenoxy)propyl)-4-methyl-1-oxo-6-(1,3,5-trimethyl-1H-pyrazol-4-yl)-3,4-dihydropyrazino[1,2-a]indol-2(1H)-yl)-1H-indole-6-carboxylic acid], for which the Ki on Mcl-1 was under 0.001 µM. The GI50 in assay [1] (setting [2]) was determined as 5.8 µM.
On the same counts, the results for `Cc1cc(OCCCc2c3n(c4c(-c5c(C)nn(C)c5C)c(Cl)ccc24)[C@H](C)CN(c2cc(C(=O)O)c4cc[nH]c4c2)C3=O)cc(C)c1Cl` [Example 101, (R)-6-(7-chloro-10-(3-(4-chloro-3,5-dimethylphenoxy)propyl)-4-methyl-1-oxo-6-(1,3,5-trimethyl-1H-pyrazol-4-yl)-3,4-dihydropyrazino[1,2-a]indol-2(1H)-yl)-1H-indole-4-carboxylic acid] are under 0.001 µM and 2.1 µM.
On the same counts, the results for `Cc1cc(OCCCc2c3n(c4c(-c5c(C)nn(C)c5C)c(Cl)ccc24)[C@H](C)CN(c2ccc4nc(C(=O)O)ccc4c2)C3=O)cc(C)c1Cl` [Example 102, (R)-6-(7-Chloro-10-(3-(4-chloro-3,5-dimethylphenoxy)propyl)-4-methyl-1-oxo-6-(1,3,5-trimethyl-1H-pyrazol-4-yl)-3,4-dihydropyrazino[1,2-a]indol-2(1H)-yl)quinoline-2-carboxylic acid] are 0.0015 µM and 4.9 µM.
On the same counts, the results for `CCn1cc(C(=O)O)c2cccc(N3C[C@@H](C)n4c(c(CCCOc5cc(C)c(Cl)c(C)c5)c5ccc(Cl)c(-c6c(C)nn(C)c6C)c54)C3=O)c21` [Example 103, (R)-7-(7-Chloro-10-(3-(4-chloro-3,5-dimethylphenoxy)propyl)-4-methyl-1-oxo-6-(1,3,5-trimethyl-1H-pyrazol-4-yl)-3,4-dihydropyrazino[1,2-a]indol-2(1H)-yl)-1-ethyl-1H-indole-3-carboxylic acid] are under 0.001 µM and 0.48 µM.
`CCn1cc(N2C[C@@H](C)n3c(c(CCCOc4cc(C)c(Cl)c(C)c4)c4ccc(Cl)c(-c5c(C)nn(C)c5C)c43)C2=O)c2ccc(C(=O)O)cc21` [Example 104, (R)-3-(7-Chloro-10-(3-(4-chloro-3,5-dimethylphenoxy)propyl)-4-methyl-1-oxo-6-(1,3,5-trimethyl-1H-pyrazol-4-yl)-3,4-dihydropyrazino[1,2-a]indol-2(1H)-yl)-1-ethyl-1H-indole-6-carboxylic acid]: the inhibition constant Ki on Mcl-1 is under 0.001 µM. Besides, the GI50 in assay [1] (setting [2]) was found to be 0.57 µM.
On the same counts, the results for `Cc1cc(OCCCc2c3n(c4c(-c5c(C)nn(C)c5C)c(Cl)ccc24)[C@H](C)CN(c2cccc4cc(C(=O)O)cnc24)C3=O)cc(C)c1Cl` [Example 105, (R)-8-(7-Chloro-10-(3-(4-chloro-3,5-dimethylphenoxy)propyl)-4-methyl-1-oxo-6-(1,3,5-trimethyl-1H-pyrazol-4-yl)-3,4-dihydropyrazino[1,2-a]indol-2(1H)-yl)quinoline-3-carboxylic acid] are under 0.001 µM and 0.27 µM.
Taken in the same sequence, the figures for `Cc1cc(OCCCc2c3n(c4c(-c5c(C)nn(C)c5C)c(Cl)ccc24)[C@H](C)CN(c2cn(C)c4cccc(C(=O)O)c24)C3=O)cc(C)c1Cl` [Example 106, (R)-3-(7-Chloro-10-(3-(4-chloro-3,5-dimethylphenoxy)propyl)-4-methyl-1-oxo-6-(1,3,5-trimethyl-1H-pyrazol-4-yl)-3,4-dihydropyrazino[1,2-a]indol-2(1H)-yl)-1-methyl-1H-indole-4-carboxylic acid] were under 0.001 µM and 0.79 µM.
Taken in the same sequence, the figures for `Cc1cc(OCCCc2c3n(c4c(-c5c(C)n[nH]c5C)c(Cl)ccc24)[C@H](C)CN(c2cn(C)c4cc(C(=O)O)ccc24)C3=O)cc(C)c1Cl` [Example 109, (R)-3-(7-chloro-10-(3-(4-chloro-3,5-dimethylphenoxy)propyl)-6-(3,5-dimethyl-1H-pyrazol-4-yl)-4-methyl-1-oxo-3,4-dihydropyrazino[1,2-a]indol-2(1H)-yl)-1-methyl-1H-indole-6-carboxylic acid] were under 0.001 µM and 0.71 µM.
Turning to `Cc1cc(OCCCc2c3n(c4c(-c5c(C)nn(C)c5C)c(Cl)ccc24)[C@H](C)CN(c2ccc4cc(C(=O)O)n(C)c4c2)C3=O)cc(C)c1Cl` [Example 110, (R)-6-(7-Chloro-10-(3-(4-chloro-3,5-dimethylphenoxy)propyl)-4-methyl-1-oxo-6-(1,3,5-trimethyl-1H-pyrazol-4-yl)-3,4-dihydropyrazino[1,2-a]indol-2(1H)-yl)-1-methyl-1H-indole-2-carboxylic acid], at Mcl-1, the Ki is under 0.001 µM. In addition, the GI50 in assay [1] (setting [2]) amounted to 0.79 µM.
For `Cc1cc(OCCCc2c3n(c4c(-c5c(C)nn(C)c5C)c(Cl)ccc24)[C@H](C)CN(c2nc(C(=O)O)c4ccccn24)C3=O)cc(C)c1Cl` [Example 111, (R)-3-(7-chloro-10-(3-(4-chloro-3,5-dimethylphenoxy)propyl)-4-methyl-1-oxo-6-(1,3,5-trimethyl-1H-pyrazol-4-yl)-3,4-dihydropyrazino[1,2-a]indol-2(1H)-yl)imidazo[1,5-a]pyridine-1-carboxylic acid], on Mcl-1, the Ki was under 0.001 µM. For the same compound, in assay [1] (setting [2]), the GI50 is 2.6 µM.
As to `Cc1cc(OCCCc2c3n(c4c(-c5c(C)nn(C)c5C)c(Cl)ccc24)[C@H](C)CN(c2cn4cccc(C(=O)O)c4n2)C3=O)cc(C)c1Cl` [Example 112, (R)-2-(7-chloro-10-(3-(4-chloro-3,5-dimethylphenoxy)propyl)-4-methyl-1-oxo-6-(1,3,5-trimethyl-1H-pyrazol-4-yl)-3,4-dihydropyrazino[1,2-a]indol-2(1H)-yl)imidazo[1,2-a]pyridine-8-carboxylic acid], the Ki at Mcl-1 turned out to be 0.0033 µM. In assay [1] (setting [2]), the GI50 came to 5.3 µM.
Taken in the same sequence, the figures for `Cc1cc(OCCCc2c3n(c4c(-c5c(C)nn(C)c5C)c(Cl)ccc24)[C@H](C)CN(c2cccc4c2cc(C(=O)O)n4C)C3=O)cc(C)c1Cl` [Example 113, (R)-4-(7-Chloro-10-(3-(4-chloro-3,5-dimethylphenoxy)propyl)-4-methyl-1-oxo-6-(1,3,5-trimethyl-1H-pyrazol-4-yl)-3,4-dihydropyrazino[1,2-a]indol-2(1H)-yl)-1-methyl-1H-indole-2-carboxylic acid] were under 0.001 µM and 0.33 µM.
For `Cc1cc(OCCCc2c3n(c4c(-c5c(C)nn(C)c5C)c(Cl)ccc24)[C@H](C)CN(c2ccc4c(c2)cc(C(=O)O)n4C)C3=O)cc(C)c1Cl` [Example 114, (R)-5-(7-Chloro-10-(3-(4-chloro-3,5-dimethylphenoxy)propyl)-4-methyl-1-oxo-6-(1,3,5-trimethyl-1H-pyrazol-4-yl)-3,4-dihydropyrazino[1,2-a]indol-2(1H)-yl)-1-methyl-1H-indole-2-carboxylic acid], the Ki at Mcl-1 was under 0.001 µM. Further, in assay [1] (setting [2]), the GI50 was 0.84 µM.
Taken in the same sequence, the figures for `Cc1cc(OCCCc2c3n(c4c(-c5c(C)nn(C)c5C)c(Cl)ccc24)[C@H](C)CN(c2ccc4cnoc4c2)C3=O)cc(C)c1Cl` [Example 115, (R)-2-(benzo[d]isoxazol-6-yl)-7-chloro-10-(3-(4-chloro-3,5-dimethylphenoxy)propyl)-4-methyl-6-(1,3,5-trimethyl-1H-pyrazol-4-yl)-3,4-dihydropyrazino[1,2-a]indol-1(2H)-one] were 0.0031 µM and 5.1 µM.
Taken in the same sequence, the figures for `Cc1cc(OCCCc2c3n(c4c(-c5c(C)nn(C)c5C)c(Cl)ccc24)[C@H](C)CN(c2ccc4c(c2)c(C(=O)O)nn4C)C3=O)cc(C)c1Cl` [Example 116, (R)-5-(7-Chloro-10-(3-(4-chloro-3,5-dimethylphenoxy)propyl)-4-methyl-1-oxo-6-(1,3,5-trimethyl-1H-pyrazol-4-yl)-3,4-dihydropyrazino[1,2-a]indol-2(1H)-yl)-1-methyl-1H-indazole-3-carboxylic acid] were under 0.001 µM and 9.7 µM.
Taken in the same sequence, the figures for `CCn1nc2c(N3C[C@@H](C)n4c(c(CCCOc5cc(C)c(Cl)c(C)c5)c5ccc(Cl)c(-c6c(C)nn(C)c6C)c54)C3=O)cccc2c1C(=O)O` [Example 117, (R)-7-(7-chloro-10-(3-(4-chloro-3,5-dimethylphenoxy)propyl)-4-methyl-1-oxo-6-(1,3,5-trimethyl-1H-pyrazol-4-yl)-3,4-dihydropyrazino[1,2-a]indol-2(1H)-yl)-2-ethyl-2H-indazole-3-carboxylic acid] were under 0.001 µM and 0.39 µM.
